In ChEMBL document CHEMBL1201862, “PubChem BioAssay data set” (2004):
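All cell lines were grown in 96-well plates and treated with compound for 48 hours. Abbreviation: GI50, concentration required for 50% inhibition of growth.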 Active and inactive are the calls of the source. No stated cut-off is given here; in the data, active = GI50 up to about 1.1 µM and inactive = higher.

Columns and labels:
Experiment in all cases: growth of human tumour cells (NCI), 48 h
[1] = tested on: COLO 205
[2] = tested on: HCT-15
[3] = tested on: HL-60
[4] = tested on: SK-OV-3
[5] = tested on: OVCAR-5
[6] = tested on: UO-31
[7] = tested on: SF-539
[8] = tested on: Malme-3M
[9] = tested on: CAKI-1
[10] = tested on: SW-620
[11] = tested on: NCI/ADR-RES
[12] = tested on: HT-29
[13] = tested on: M14
[14] = tested on: OVCAR-3
[15] = tested on: SF-268
[16] = tested on: MCF7
[17] = tested on: T47D
[18] = tested on: MDA-MB-435
[19] = tested on: MOLT-4
[20] = tested on: SNB-75

| SMILES | GI50 [1] | GI50 [2] [µM] | GI50 [3] | GI50 [4] | GI50 [5] | GI50 [6] | GI50 [7] | GI50 [8] | GI50 [9] | GI50 [10] | GI50 [11] | GI50 [12] | GI50 [13] | GI50 [14] | GI50 [15] | GI50 [16] | GI50 [17] | GI50 [18] | GI50 [19] | GI50 [20] |
| --- | --- | --- | --- | --- | --- | --- | --- | --- | --- | --- | --- | --- | --- | --- | --- | --- | --- | --- | --- | --- |
| COc1cc(O)c2c(O)c3c(=O)oc(C)cc3c(OC)c2c1 [PAEPALANTINE] | 19.2 µM (inactive) | 28.3 | 27.3 µM (inactive) | 24.5 µM (inactive) | 32 µM (inactive) | 31.8 µM (inactive) | 21 µM (inactive) | 21.4 µM (inactive) | 31 µM (inactive) | 34.2 µM (inactive) | 19.6 µM (inactive) | 21.2 µM (inactive) | 32 µM (inactive) | 27.2 µM (inactive) | 34.3 µM (inactive) | 32.6 µM (inactive) | 32.4 µM (inactive) | 18.3 µM (inactive) | 23 µM (inactive) | – |
| CCOP(=O)(OCC)/C(=C\N1C(=O)CC(=O)NC1=S)C(=O)OC | > 100 µM (inactive) | > 100 | > 100 µM (inactive) | > 100 µM (inactive) | > 100 µM (inactive) | > 100 µM (inactive) | > 100 µM (inactive) | – | > 100 µM (inactive) | > 100 µM (inactive) | > 100 µM (inactive) | > 100 µM (inactive) | > 100 µM (inactive) | > 100 µM (inactive) | > 100 µM (inactive) | > 100 µM (inactive) | > 100 µM (inactive) | > 100 µM (inactive) | > 100 µM (inactive) | > 100 µM (inactive) |
| CC(=O)OC1CC2C(C)(C)C(=O)C=CC2(C)C2CCC3(C)C(c4ccoc4)OC(=O)C4OC43C12C (stereo not given) | 7.5 µM (inactive) | 5.07 | 5.55 µM (inactive) | 7.71 µM (inactive) | 19.7 µM (inactive) | 4.23 µM (inactive) | 6.55 µM (inactive) | – | 11.9 µM (inactive) | 6.28 µM (inactive) | 5.32 µM (inactive) | 7.46 µM (inactive) | 10.5 µM (inactive) | 21.6 µM (inactive) | 28.5 µM (inactive) | 4.69 µM (inactive) | 12.5 µM (inactive) | 3.27 µM (inactive) | 8.2 µM (inactive) | > 100 µM (inactive) |
| O=C1OC(=O)c2cc(S(=O)(=O)c3ccc4c(c3)C(=O)OC4=O)ccc21 | > 100 µM (inactive) | > 100 | – | > 100 µM (inactive) | > 100 µM (inactive) | > 100 µM (inactive) | > 100 µM (inactive) | 24.1 µM (inactive) | > 100 µM (inactive) | > 100 µM (inactive) | > 100 µM (inactive) | > 100 µM (inactive) | > 100 µM (inactive) | > 100 µM (inactive) | > 100 µM (inactive) | > 100 µM (inactive) | > 100 µM (inactive) | > 100 µM (inactive) | – | 26.1 µM (inactive) |
| O=c1nc2n(CCO)c(-c3ccccc3)c(-c3ccccc3)nc-2c(=O)[nH]1 | > 100 µM (inactive) | > 100 | – | > 100 µM (inactive) | > 100 µM (inactive) | > 100 µM (inactive) | > 100 µM (inactive) | > 100 µM (inactive) | > 100 µM (inactive) | > 100 µM (inactive) | > 100 µM (inactive) | > 100 µM (inactive) | > 100 µM (inactive) | > 100 µM (inactive) | > 100 µM (inactive) | > 100 µM (inactive) | > 100 µM (inactive) | > 100 µM (inactive) | > 100 µM (inactive) | > 100 µM (inactive) |
| CN(C(=O)C12C3C4(C(=O)O)C1(C(=O)N(C)C(C)(C)C)C1C2(C(=O)O)C3(C(=O)N(C)C(C)(C)C)C14C(=O)N(C)C(C)(C)C)C(C)(C)C (stereo not given) | > 100 µM (inactive) | > 100 | > 100 µM (inactive) | – | > 100 µM (inactive) | > 100 µM (inactive) | > 100 µM (inactive) | – | > 100 µM (inactive) | > 100 µM (inactive) | > 100 µM (inactive) | > 100 µM (inactive) | > 100 µM (inactive) | > 100 µM (inactive) | > 100 µM (inactive) | > 100 µM (inactive) | > 100 µM (inactive) | > 100 µM (inactive) | > 100 µM (inactive) | – |
| COC1CC(OC2CCC3(C)C(CCC45CCC(C6=CC(=O)OC6)C(C)(CCC43)C5=O)C2)OC(C)C1O (stereo not given) | 40.5 µM (inactive) | 24.3 | 18.8 µM (inactive) | 46.1 µM (inactive) | 40.8 µM (inactive) | 16.5 µM (inactive) | 20.3 µM (inactive) | – | 32.6 µM (inactive) | 43.7 µM (inactive) | 32.5 µM (inactive) | 39.5 µM (inactive) | > 100 µM (inactive) | 27.7 µM (inactive) | 17.5 µM (inactive) | 50.7 µM (inactive) | 30.8 µM (inactive) | > 100 µM (inactive) | 32.1 µM (inactive) | 30.3 µM (inactive) |
